Patent publication US9718771B2, “Aniline derivative, pharmaceutical composition containing same, and use thereof” (Kissei Pharmaceutical Co., Ltd., priority 2014, dated 2017)

Tests used:
[1] = test system: blood lymphocytes; test: Confirmation test for reduction effects on the number of lymphocytes; format: in vivo, Male Sprague-Dawley rats; details: rat, oral; for Number of lymphocytes (% of Vehicle) After 6 hours: 6 hours after administration; for Number of lymphocytes (% of Vehicle) After 24 hours: 24 hours after administration; for Number of lymphocytes (% of Vehicle) After 48 hours: 48 hours after administration
Description: Confirmation Test for Reduction Effects on the Number of Lymphocytes
Reduction effects on the number of blood lymphocytes by test compounds were confirmed using Male Sprague-Dawley rats (Japan SLC, 7-weeks-old in use). Administration solutions for test compounds were prepared on hot-plate at 50° C. After test compounds were dissolved by DMSO (dimethyl sulfoxide, Wako Pure Chemicals) of 1/10 volume of the total volume, WellSolve (Celeste) of 1/10 volume of the total volume was added to this solution. Further, distilled water (Otsuka Pharmaceutical Factory) of 8/10 volume of the total volume was added to this solution, and the administration solutions for test compounds were prepared. A solution, prepared in the same volume ratios of DMSO. WellSolve and distilled water as the administration solution for test compounds, was used as a solvent (Vehicle). Vehicle or test compound was administered orally to rats at 1 mL/body. After 6, 24 and 48 hours from administration of vehicle or test compounds, rats were held on the board at supine position under inhalation anesthesia with isoflurane (Abbott Japan). Blood samples (200 to 250 μL) were collected from the cervical vein of this rat using 1 mL syringes with needles of 25G. The collected blood samples were transferred to a microtube treated with EDTA-2K (Japan Becton Dickinson), and stored at room temperature after gently mixing with inversion. The number of lymphocytes was measured by ADVIA (registered mark) (Bayer), which is a multi-parameter automated blood cell counter using this blood samples. The average number of lymphocytes in vehicle-treated group (vehicle group) was defined as 100%, and the average number of lymphocytes in each test compound-treated group was calculated as % of vehicle. As Comparative Example 2, 1-{5-[1-(4-chloro-3-methyl-phenyl)-propylamino]-2-methyl-benzyl}-azetidine-3-carboxylic acid (patent literature 1, Example 4) was evaluated as well.

[2] = test system: Naïve T cells-transferred colitis model; test: Drug efficiency evaluation in naïve T cells-transferred colitis model; format: in vivo; details: SCID mice, mean ± standard error; for Body weight change ratio (%): oral twice a day from day 15, 15 mg/kg, day 30; for Colon weight (%) / DAI score (%): oral twice a day, 15 mg/kg, vehicle group = 100%
Description: The Drug Efficiency Evaluation in Naïve T Cells—Transferred Colitis Model
(1) Purification of CD45RB Positive Naïve T Cells and Transfer the Cells into SCID Mice
After female BALB/c mice (Charles River Japan, 8-weeks-old in use) were sacrificed by blood removal from cervical vein under inhalation anesthesia with isoflurane spleens were harvested from these mice. Spleens were washed with ice-cold PBS (phosphate buffered saline, Invitrogen) and stored in 50 mL tube containing PBS on ice. Spleens stored on ice were mashed with the upper portion of slide glasses inside a biological safety cabinet, and filtered through a cell filter (pore size 70 μm), and the filtrate was centrifuged at 500×g, room temperature for 5 minutes. After the supernatant was removed, 12 mL of RBC lysis buffer (Biolegend) was added to a cell pellet and it was resuspended and left for about 3 minutes. The supernatant was removed after centrifugation and the hemolytic process was performed by repeating same procedure once again.
The cells were purified with Mouse Naive T cell CD4^+/CD62L^+/CD44^low Colum Kit (R&D systems). The cells performed with the hemolytic process, were suspended by column buffer attached to the above Column Kit, and purified through a cell filter (pore size 70 μm) after centrifugation at 500×g, room temperature for 5 minutes. The cells were resuspended with column buffer, and antibody cocktails attached to the above Column Kit were added to this and mixed. After that, the cells were purified according to the protocol of the Column Kit.
Next, purification of CD45RB positive cells was performed by MACS (registered mark) separator (Miltenyi Biotec). The purified cells were suspended with 2 mL of PBS containing 0.5% BSA, and reacted at room temperature for 15 minutes after adding FITC (fluorescein isothiocyanate)-labeled anti-CD45RB antibody (Biolegend). After washing two times with PBS containing 0.5% BSA by centrifugation, the cells were resuspended with 2 mL of PBS containing 0.5% BSA and reacted at room temperature for 10 minutes after adding anti-FITC microbeads (Miltenyi Biotec). After washing one time with PBS containing 0.5% BSA by centrifugation, the cells were resuspended with 3 mL of PBS containing 0.5% BSA, and a fraction of CD45RB positive cells was purified according to the protocol of MACS (registered trademark) separator. In the process of elution after detached from MACS (registered trademark) separator, the cells were separated with 5 mL of PBS. The cell suspension was washed one time by centrifugation with PBS, resuspended by appropriate PBS and measured the cell number as naïve T cells suspension for transfer. Female CB17/Icr-scid/scid Jcl (SCID mice) (Charles River Japan, 8-weeks-old in use) were induced colitis by intraperitoneal administration of 500 μL (divided into 250 μL two times) of naïve T cells suspension prepared at 6×10^5 cells/mL by PBS.
(2) Measurement of Body Weight and Procedure for Administration of Drugs
Body weights were measured at day 1, 8 and 15 as day 0 when naïve T cells were transferred to mice. Mice were grouped evenly, based on body weight change at day 15. The measurement of body weight was performed two times a week after day 15. A solvent (Vehicle) and test compounds were administered twice a day from the evening of day 15. The administration solution was prepared as indicated below. Firstly, 0.5% methyl cellulose (Wako pure chemicals) of 1/10 volume of total volume was added to test compound, and a suspension was prepared by sonication. […] After that, administration solutions for test compounds were prepared by sonication while adding distilled water of 9/10 volume of total volume to these suspensions in several batches. A solution prepared in the same volume ratios of 0.5% methyl cellulose and distilled water as administration solutions for test compounds was used as vehicle. Administration solutions for vehicle or test compounds were orally administered to mice at 5 mL/kg.

Structure (SMILES) | Number of lymphocytes (% of Vehicle) After 6 hours ([1]; 10 mg/kg) | Number of lymphocytes (% of Vehicle) After 24 hours ([1]; 10 mg/kg) | Number of lymphocytes (% of Vehicle) After 48 hours ([1]; 10 mg/kg) | Body weight change ratio (%) [2] [%] | Colon weight (%) [2] [%] | DAI score (%) [2] [%] | Number of lymphocytes (% of Vehicle) After 6 hours ([1]; 1 mg/kg) | Number of lymphocytes (% of Vehicle) After 24 hours ([1]; 1 mg/kg) | Number of lymphocytes (% of Vehicle) After 48 hours ([1]; 1 mg/kg)
CCN(c1ccc(Cl)c(C)c1)C(C)c1ccc(C)c(CN2CC(C(=O)O)C2)c1 (stereo not drawn) [Compound 2-6, 1-(5-{1-[(4-Chloro-3-methylphenyl)(ethyl)amino]ethyl}-2-methylbenzyl)azetidine-3-carboxylic acid] | 9.9 % of Vehicle | 14.1 % of Vehicle | 65.7 % of Vehicle | 1.7 ± 1.1 | 36.8 ± 17.1 | 24.3 ± 11.8 | – | – | –
CCN(c1ccc(Cl)c(C(F)(F)F)c1)C(C)c1ccc(C)c(CN2CC(C(=O)O)C2)c1 (stereo not drawn) [Compound 2-7, 1-(5-{1-[(4-Chloro-3-trifluoromethylphenyl)(ethyl)amino]ethyl}-2-methylbenzyl)-azetidine-3-carboxylic acid] | 10.9 % of Vehicle | 10.6 % of Vehicle | 13.2 % of Vehicle | 1.6 ± 1.2 | 32.4 ± 14.2 | 22.1 ± 14.8 | 15.0 % of Vehicle | 11.1 % of Vehicle | 66.8 % of Vehicle
